Measurements published in patent US12570970B2, “Inorganic phosphate as a stabilizer for phytase enzymes” (DANISCO US INC, priority 2018, dated 2026).
Structures can show the parent of a compound that is named as a salt.

Tests used:
BP-17 phytase [1] = assay: Thermal inactivation of BP-17 phytase at 70° C. in the presence of stabilizing salts, residual activity by colorimetric assay; type: biochemical, Buttiauxella sp.; details: for phytase activity state: 70° C.
Description: An experiment was performed to determine whether the addition of excipients during thermal stress conditions allows the phytase enzyme to retain its activity. A temperature was selected at which the phytase enzyme is completely inactivated in the absence of excipient after 30-minutes incubation. Excipient solutions were prepared at their highest solubility. then titrated from highest to lowest concentrations prior to their addition to the phytase UFC. The enzyme/excipient combinations were then exposed to a temperature of 70° C., and the residual activity was measured after 2, 5, 10, 20, 30, and 60-minutes incubation via a colorimetric activity assay
A 20% (or 1.41 M) sodium phosphate solution was prepared by dissolving 5 grams of sodium phosphate dibasic anhydrous into 25 mL of water. The pH was adjusted to 5.5 using concentrated phosphoric acid. A 25% (or 0.85 M) sodium citrate solution was prepared by dissolving 5 grams of sodium citrate dihydrate into 20 mL of water. The pH was adjusted to 5.5 using 80% citric acid.
A volume of 80 μL of the 20% sodium phosphate stock solution was added to the first well of 8 different 12-well PCR strips. A volume of 40 μL of −Q water was added to wells 2, 3. 4, 5, and 6 of each PCR strip. The sodium phosphate stock solution was serially diluted 2-fold sequentially from well 1 to well 6. A volume of 80 μL of the 25% sodium citrate stock solution was added to well 7 of each PCR strip. A volume of 40 μL of water was added to wells 8, 9, 10, 11, and 12 of each PCR strip. The sodium citrate stock solution was serially diluted 2-fold sequentially from well 7 to well 11, leaving well 12 to contain water only. The BP-17 phytase UFC was diluted 50-fold in autoclaved water. A volume of 40 μL of the diluted UFC was added to each well of the 8 different 12-well PCR strips containing the diluted excipients.
The temperature cycler was programmed to a temperature of 70° C. One PCR strip was sealed and placed immediately on ice for the time zero measurement. The remaining PCR strips were sealed, placed inside the PCR, incubated for varying increments of time (0.5, 2, 5, 10, 20, 30, and 60 minutes), then removed from the PCR and placed immediately on ice. After each of the PCR strips had been collected on ice, they were placed on a 96-well PCR tube rack and centrifuged for 2 minutes at 3500 rpm.
As some precipitation occurred during thermal inactivation, the PCR strips were subjected to centrifugation and the supernatant was removed and diluted with assay buffer (0.1 M acetate Buffer pH 5.5+0.05% w/v Tween 20) to a final activity of 0.012 FTU/mL in a non-binding (Corning 3641) 96-well plate. A volume of 40 μL was transferred from the enzyme dilution plate into a separate reaction plate (Costar 9017, medium binding). A volume of 40 μL of substrate (150 μM sodium phytate) was then added to each of the wells of the reaction plate. The reaction plate was sealed and incubated for 10 minutes at 25° C. and 900 rpm. A volume of 170 μL of Pi Blue stop/color reagent (POPB-500 by BioAssay Systems US) was then added to each well of the reaction plate to stop the reaction. The plate was sealed and incubated for 30 minutes at 25° C. and 400 rpm for color development, then read in a spectrophotometer at 620 nm.

BP-17 phytase [2] = assay: Mechanism of inhibition: phytase activity with titrated substrate and titrated excipient (PNPP assay); type: biochemical, Buttiauxella sp.; details: ambient assay conditions (25° C.)
Description: Kinetic analysis was performed to determine the mechanism of stabilization of both the sodium phosphate and sodium citrate with respect to the phytase enzyme by measuring the activity of phytase in the presence of both titrated substrate and titrated excipient concentrations.
The BP-17 phytase UFC was diluted 7,000-fold in 0.1 M acetate buffer pH 5.5.
The substrate stock solution (400 mM) was prepared by dissolving 0.923 grams of 4-nitrophenyl phosphate di (tris) salt into 5 mL of 0.25 M acetate buffer pH 5.5. A volume of 200 μL of the substrate stock solution was added to columns 1 and 7 of a 96-well plate. A volume of 100 μL of 0.25 M acetate Buffer pH 5.5 was added to columns 2-6 and 8-12 of the same 96-well plate. Serial dilutions were performed by transferring 100 μL from column 1 into column 2 of the 96-well plate, and then repeating this dilution pattern across the plate to column 6 so that the following substrate concentrations were made: 400, 200, 100, 50, 25, and 12.5 mM. The same serial dilutions were performed across the second half of the plate from columns 7 to 12.
A 20% (or 1.41 M) sodium phosphate solution was prepared by dissolving 5 grams of sodium phosphate dibasic anhydrous into 25 mL of 0.1 M acetate buffer pH 5.5. […]

BP-17 phytase [3] = assay: Phytase melting temperature (Tm) in the presence of excipients, differential scanning fluorimetry (nanoDSF); type: physicochemical, Buttiauxella sp.
Description: An experiment was performed to determine whether the addition of different excipients during thermal exposure increases the melting temperature of the phytase enzyme in the liquid state. Excipient solutions were prepared at their highest solubility, then titrated from highest to lowest concentrations prior to their addition to the phytase UFC. The enzyme/excipient combinations were then exposed to a temperature profile of 21-95° C., and the melting temperatures were measured via differential scanning fluorimetry. The concentration of phytase in the UFC was measured at 123.9 g/L via HPLC. […] A 20% phytic acid solution was prepared by dissolving 1 gram of phytic acid into 5 mL of 0.1 M acetate buffer pH 5.5. The pH was adjusted from 4.2 to 5.47 using 20% NaOH, and then the solution was filtered using a 0.45 μM syringeless filter. A 25% sodium sulfate anhydrous solution was prepared by dissolving 5 grams into 20 mL of water. The pH was adjusted to 5.6 using sulfuric acid, and then the solution was filtered using a 0.45 μM syringeless filter. A 20% sodium polyphosphate solution was prepared by dissolving 5 grams into 25 mL of water. The pH was adjusted to 5.6 using concentrated phosphoric acid, and then the solution was filtered using a […] syringeless filter. […] The pH was adjusted to 5.6 using 80% citric acid, and then the solution was filtered using a 0.45 μM syringeless filter. A 20% sodium phosphate dibasic solution was prepared by dissolving 2 grams into 10 mL of water. The pH was adjusted to 5.6 using concentrated phosphoric acid, and then the solution was filtered using a 0.45 μM syringeless filter. A volume of 100 μL of an excipient stock solution was added to well A in column 1 of a 96-well plate. A volume of 50 μL of water was added to each well B-H in column 1 of the same 96-well plate. The excipient stock solution was titrated 2-fold down the column of the plate by transferring 50 μL into each subsequent well. A volume of 80 μL of the pH adjusted UFC was added to each of the wells in column 1 of a new 96-well plate. A volume of 20 μL was transferred from each well of the titrated excipient directly into the corresponding well containing the UFC. The 96-well plate containing the enzyme and excipient combinations was mixed on a plate shaker for 5 seconds. Standard capillaries for the nanoDSF were filled by dipping a capillary in each well of the 96-well plate, and then loading onto the Nanotemper instrument. The Nanotemper instrument was programmed to run at 10% excitation power and 21-95° C. with a 1° C./minute ramp. The Nanotemper instrument monitors the shift of intrinsic tryptophan fluorescence of proteins upon unfolding by measuring wavelengths at 330 and 350 nm.

`O.O.O=C([O-])CC(O)(CC(=O)[O-])C(=O)[O-].[Na+].[Na+].[Na+]` [sodium citrate, Sodium citrate dihydrate, reference compound] was tested. Which phytase activity retained (BP-17 phytase [1]; 425 mM sodium citrate, 60-minutes incubation at 70° C., FIG. 7) did it give?
The phytase activity retained was “approximately 90%”.

What about the phytase activity retained (BP-17 phytase [1]; half of 425 mM sodium citrate, 60-minutes incubation at 70° C., FIG. 7) of the same compound?
Its phytase activity retained is at most 50%.

And the phytase activity state (BP-17 phytase [1]; sodium citrate below half of 425 mM, FIG. 7)?
Its phytase activity state is “inactivated”.

And the “excipient concentration at which phytase activity loss levels out” value (BP-17 phytase [2]; increasing phytic acid substrate, FIG. 9)?
The value was at least 26 mM.

How did the “relative residual phytase activity retained” value (BP-17 phytase [1]; 352 mM sodium phosphate, 60-minutes incubation at 70° C., FIG. 6) turn out when `O=P([O-])([O-])O.[Na+].[Na+]` [sodium phosphate, Sodium phosphate, dibasic, anhydrous] was run?
Its value is “approximately 90%”.

And the phytase activity retained (BP-17 phytase [1]; half of 352 mM sodium phosphate, 60-minutes incubation at 70° C., FIG. 6)?
The phytase activity retained was “approximately 60%”.

And the phytase activity state (BP-17 phytase [1]; sodium phosphate below half of 352 mM, FIG. 6)?
Its phytase activity state is “nearly inactivated”.

What about the “phytase activity in presence of excipient and substrate” value (BP-17 phytase [2]; 150 mM sodium phosphate and 100 mM phytic acid substrate, FIG. 8) of the same compound?
Its value is “very little activity”.

What about the “stabilizing effect on Tm compared with other excipients” value (BP-17 phytase [3]; equivalent molar ratios to the phytase, normalized for anion equivalents, FIG. 4) of the same compound?
Its value is “greater than that of sodium phytate, sodium polyphosphate, and sodium sulfate”.

What about the “increase in melting temperature of phytase” value (BP-17 phytase [3]; molar ratio of 130:1 sodium phosphate to phytase, phytase UFC, liquid state, FIGS. 2 and 3) of the same compound?
Its value is “approximately 5.5 °C”.

What about the “increase in melting temperature compared with citrate” value (BP-17 phytase [3]; normalized for charge equivalents, FIG. 5) of the same compound?
Its value is “much higher”.

How did the “increase in Tm of phytase” value (BP-17 phytase [3]; molar ratio of 14:1 sodium phytate to phytase, phytase UFC, liquid state, FIG. 1) turn out when `O=P(O)(O)O[C@H]1[C@H](OP(=O)(O)O)[C@@H](OP(=O)(O)O)[C@H](OP(=O)(O)O)[C@@H](OP(=O)(O)O)[C@H]1OP(=O)(O)O` [sodium phytate, Phytic acid sodium salt hydrate, reference compound] was run?
Its value is “approximately 2.7 °C”.
